In assay [1] the test system is Mac-1 and LFA-1-mediated neutrophil binding to immobilized ICAM-1. Briefly: Neutrophil (Mac-1 and LFA-1)/ICAM-1 cell-based screening assay. Conditions: human neutrophils. The method, then: Both Mac-1 and LFA-1 are expressed on the cell surface of neutrophils. The ability of antagonists to inhibit Mac-1 and LFA-1-mediated neutrophil binding to immobilized ICAM-1 was quantitated by a cell based assay. Typically, fusion protein consisting of the entire extracellular domain of human ICAM-1 and the Fc domain of human IgG (5dICAM-Ig) was coated onto 96 well microtiter plates (1 μg in 100 μL TBS) overnight at 4° C. The plates were then blocked with 150 μL of 10% PVP in TBS for 1 h at 37° C. Plates were washed 3 times (150 μL each) with TBS. Human neutrophils were purified from whole blood from healthy volunteers using LSM (ICN). Cells (8×10^6/mL) were fluorescently labeled with 6-carboxyfluorescein (100 μg/mL) for 40 min in IMDM/1 mM MgCl2/1.2 mM CaCl2 as described in Example 287. Cells (8×10^6/mL) were stimulated with f-Met-Leu-Phe (10 μM) for 5 min at room temperature just prior to being used in the assay, and diluted to 2×10^6 cells/mL with RPMI/0.05% BSA/0.2 mM MnCl2. Stock solutions (10 mM) of test compounds were diluted to 2.5 mM with DMSO. A series of 1:4 dilutions in DMSO were performed to achieve a concentration range of 38.2 nM-2.5 mM. Each sample was further diluted 50-fold with RPMI/0.05% BSA/0.2 mM MnCl2. Equal volumes of labeled cells were then added to assay tubes containing diluted compound. Final concentrations of compound tested in the assay ranged from 0.38 nM-25 μM with a cell concentration of 1×10^6 per mL. Cells were incubated for 10 min at 37° C. with gentle shaking, then dispensed (100 μL per well) onto ICAM-1 coated plates and incubated for 30 min at 37° C./5% CO2. Unbound cells were washed and plates were read on a Cytofluor™ 2300 (Millipore) as described in Example 384.

The subject of assay [2] is C57BI/6 mice. Briefly: Delayed type hypersensitivity in mice (mBSA paw swelling). It counts as in vivo. Conditions: compared to distilled water pumps. The protocol: Sensitization: On day 0, adult female C57BI/6 mice (20-25 g) received 50 μl each of a 1:1 mixture of 10 mg/ml methylated bovine serum albumin (mBSA) in phosphate buffered saline (PBS) and complete Freund's adjuvant (CFA) intradermally at two sites on shaved bellies (total volume 100 μl per mouse). Control mice received an equal volume of a PBS/CFA mixture (unsensitized).
Challenge: On day 7, the mice received 20 μl I of 5 mg/ml mBSA in PBS injected into the right hind paw. The contralateral left paw of each mouse was injected with an identical volume of PBS. After 24 hours, the paw swelling of both the hind feet of all mice was measured with microcalipers. To determine the paw swelling response, measurements of the left paw were subtracted from that of the right paw for each individual mouse.
At the time of challenge, anaesthetized mice were implanted on their backs with Alzet osmotic minipumps which delivered a constant volume per hour of the inhibitors (e.g. Example 226) subcutaneously. The pumps delivered a volume 200 μl over a period of 1 day. Different doses of the compounds were tested viz. 850, 250 and 85 mg/kg/day. The inhibitors were formulated in distilled water. Control mice received pumps containing distilled water. For antibody treatment groups, mice received 200 μg of anti-mouse LFA-1 (Mi7), anti-mouse Mac-1 (M1/70) or control rat IgG intraperitoneally on the day of challenge.
In table 10, the swelling response in antibody-treated animals is compared to the swelling response in rat IgG-treated animals. The swelling response in compound-treated animals is compared to the swelling-response in mice that had received pumps containing distilled water

The subject of assay [3] is BALB/c mice. Briefly: Croton oil-induced dermatitis in mice (ear swelling). It is filed as in vivo. Conditions: compared to distilled water pumps. The method, then: Adult female BALB/c mice (20-25 g) received 10 μl of 20 mg/ml of croton oil in 80% acetone:20% olive oil vehicle on each side of the right ear (total of 20 μl per mouse). All the mice received a similar volume of the acetone/olive oil vehicle on the contralateral left ear. Negative control mice received vehicle on both ears. Six hours thereafter, the ear swelling on both ears was measured with microcalipers. The ear swelling response was determined by subtraction of the swelling measurements of the left ear from that of the right ear for each individual mouse.
Inhibitors were administered to mice via 3 day Alzet osmotic minipumps. Pumps containing different concentrations of the inhibitors were implanted on the backs of anaesthetized mice 2 days prior to croton oil application. Additional mice received an equal volume of distilled water in pumps. For mice receiving antibodies, anti-CD18 antibody (HB226) or control rat IgG were administered i.p. at 200 μg per mouse 18 hours prior to croton oil application.
In table 11, the swelling response in antibody-treated animals is compared to the swelling response in rat IgG-treated animals. The swelling response in compound-treated animals is compared to the swelling-response in mice that had received pumps containing distilled water

pIC50: −log10 of the molar value.

The compound `O=C(CC1CCCCC1)NC[C@H](NC(=O)c1ccc(C(=O)NCc2cccc(O)c2)cc1Cl)C(=O)O` [Example 78] gave a pIC50 in assay [1] of 6.60. For the compound `O=C(NCc1cccc(O)c1)c1ccc(C(=O)N[C@@H](CNC(=O)c2ccc3c(c2)S(=O)(=O)c2ccccc2C3=O)C(=O)O)c(Cl)c1` [Example 192], in assay [1], the negative-log IC50 (pIC50) was 6.20. For `O=C(NC[C@H](NC(=O)c1c(F)cccc1Cl)C(=O)O)c1ccc2[nH]nnc2c1` [Example 226], the “Percentage inhibition of paw swelling in response to challenge with methylated bovine serum albumin” value in assay [2] (1 μM, s.c. osmotic minipump) is listed as −2%; in assay [2] (3 μM circulating serum level (250 mg/kg/day, s.c. osmotic minipump)) it was 52%; in assay [2] (9 μM circulating serum level (850 mg/kg/day, s.c. osmotic minipump)), 77%. The “Percentage inhibition of ear swelling in response to croton oil application” value in assay [3] (1 μM, osmotic minipump) stood at 8%; in assay [3] (2 μM circulating serum level (64 mg/kg/day, osmotic minipump)), 48%; in assay [3] (4 μM circulating serum level (250 mg/kg/day, osmotic minipump)), 62%. As for `O=C(NCc1cccc(O)c1)c1ccc(C(=O)N[C@@H](CNC(=O)c2cc(F)cc(F)c2)C(=O)O)c(Cl)c1` [Example 252, N-[2-chloro-4-[[[(3-hydroxyphenyl)methyl]amino]carbonyl]benzoyl]-3-(3,5-difluorobenzoyl)amino-L-alanine], in assay [1], the negative-log IC50 (pIC50) was 7.47. In assay [1], `O=C(NCc1cccc(O)c1)c1ccc(C(=O)N[C@@H](CNC(=O)c2ccoc2)C(=O)O)c(Cl)c1` [Example 259, N-[2-chloro-4-[[[(3-hydroxyphenyl)methyl]amino]carbonyl]benzoyl]-3-(furan-3-carbonyl)amino-L-alanine] showed a pIC50 of 7.68. In assay [1], `O=C(NCc1cccc(O)c1)c1ccc(C(=O)N[C@@H](CNC(=O)c2ccccc2)C(=O)O)c(Cl)c1` [Example 302, 3-benzoylamino-N-[2-chloro-4-[[[(3-hydroxyphenyl)methyl]amino]carbonyl]benzoyl]-L-alanine] showed a pIC50 of 7.39. `O=C(NCc1cccc(O)c1)c1ccc(C(=O)N[C@@H](CNC(=O)c2cccs2)C(=O)O)c(Cl)c1` [Example 303, N-[2-chloro-4-[[[(3-hydroxyphenyl)methyl]amino]carbonyl]benzoyl]-3-(thiophene-2-carbonyl)amino-L-alanine] showed a pIC50 in assay [1] of 7.80. The compound `Cc1cc(C(=O)NCc2cccc(O)c2)ccc1C(=O)N[C@@H](CNC(=O)c1cccs1)C(=O)O` [Example 323] gave a pIC50 in assay [1] of 7.21. `O=C(NCc1cccc2[nH]ncc12)c1ccc(C(=O)N[C@@H](CNC(=O)c2cccs2)C(=O)O)c(Cl)c1` [Example 327, N-[2-chloro-4-[[[(1H-indazol-4-yl)methyl]amino]carbonyl]benzoyl]-3-(thiophene-2-carbonyl)amino-L-alanine] had a negative logarithm of the IC50 (pIC50) in assay [1] of 7.70. As for `Cc1cc(C(=O)NCc2cccc(O)c2)cc(C)c1C(=O)N[C@@H](CNC(=O)c1cccs1)C(=O)O` [Example 330], the pIC50 in assay [1] is 8.17. In assay [1], `Cc1cc(C(=O)N[C@H](C)c2cccc3ccccc23)cc(C)c1C(=O)N[C@@H](CNC(=O)c1cccs1)C(=O)O` [Example 333] had a negative logarithm of the IC50 (pIC50) of 7.85. Turning to `Cc1cc(C(=O)NCc2cccc(O)c2)cc(C)c1C(=O)N[C@@H](CNC(=O)c1ccsc1)C(=O)O` [Example 336, N-[2,6-dimethyl-4-[[[(3-hydroxyphenyl)methyl]amino]carbonyl]benzoyl]-3-(thiophene-3-carbonyl)amino-L-alanine], the pIC50 in assay [1] was 8.21. As for `Cc1cc(C(=O)NCc2cccc(O)c2)cc(C)c1C(=O)N[C@@H](CNC(=O)c1cc(F)cc(F)c1)C(=O)O` [Example 337, N-[2,6-dimethyl-4-[[[(3-hydroxyphenyl)methyl]amino]carbonyl]benzoyl]-3-(3,5-difluorobenzoylamino)-L-alanine], the pIC50 in assay [1] was 7.92. As for `Cc1cc(C(=O)NCc2cccc(O)c2)cc(Cl)c1C(=O)N[C@@H](CNC(=O)c1cccs1)C(=O)O` [Example 338, N-[2-chloro-4-[[[(3-hydroxyphenyl)methyl]amino]carbonyl]-6-methylbenzoyl]-3-[(thiophene-2-carbonyl)amino]-L-alanine], in assay [1], the pIC50 is 8.41. On the same count and under the same terms, the result for `Cc1cc(C(=O)NCc2cccc(O)c2)cc(Cl)c1C(=O)N[C@@H](CNC(=O)c1ccsc1)C(=O)O` [Example 339, N-[2-chloro-4-[[[(3-hydroxyphenyl)methyl]amino]carbonyl]-6-methylbenzoyl]-3-[(thiophene-3-carbonyl)amino]-L-alanine] reads 8.52; that for `Cc1cc(C(=O)NCc2cccc(O)c2)cc(Cl)c1C(=O)N[C@@H](CNC(=O)c1cc(F)cc(F)c1)C(=O)O` [Example 340, N-[2-chloro-4-[[[(3-hydroxyphenyl)methyl]amino]carbonyl]-6-methylbenzoyl]-3-[(3,5-difluorobenzoyl)amino]-L-alanine], 8.40; that for `O=C(NCc1cccc(O)c1)c1cc(Cl)c(C(=O)N[C@@H](CNC(=O)c2cccs2)C(=O)O)c(Cl)c1` [Example 342, N-[2,6-dichloro-4-[[[(3-hydroxyphenyl)methyl]amino]carbonyl]benzoyl]-3-[(thiophene-2-carbonyl)amino]-L-alanine], 8.64.

`O=C(NCc1cccc(O)c1)c1cc(Cl)c(C(=O)N[C@@H](CNC(=O)c2ccsc2)C(=O)O)c(Cl)c1` [Example 343, N-[2,6-dichloro-4-[[[(3-hydroxyphenyl)methyl]amino]carbonyl]benzoyl]-3-[(thiophene-3-carbonyl)amino]-L-alanine] showed a negative-log IC50 (pIC50) in assay [1] of 8.72.

`O=C(NCc1cccc(O)c1)c1cc(Cl)c(C(=O)N[C@@H](CNC(=O)c2cc(F)cc(F)c2)C(=O)O)c(Cl)c1` [Example 344, N-[2,6-dichloro-4-[[[(3-hydroxyphenyl)methyl]amino]carbonyl]benzoyl]-3-[(3,5-difluorobenzoyl)amino]-L-alanine]: the negative logarithm of the IC50 (pIC50) in assay [1] was 8.77. Consider `O=C(NCc1cccc(O)c1)c1cc(Cl)c(C(=O)N[C@@H](CNC(=O)c2cc(O)cc(O)c2)C(=O)O)c(Cl)c1` [Example 345, N-[2,6-dichloro-4-[[[(3-hydroxyphenyl)methyl]amino]carbonyl]benzoyl]-3-(3,5-dihydroxybenzoylamino)-L-alanine], for which the negative-log IC50 (pIC50) in assay [1] was 10.00.

The pIC50 is the negative decadic logarithm of the IC50, by convention in mol/L. A lower pIC50 goes with a large IC50.

The values are drawn from patent publication US20040006236A1, “Diaminopropionic acid derivatives” (priority 1999, published 2004).
